Source: patent publication US20240299486A1, “ADDRESSING INJECTION SITE REACTIONS ASSOCIATED WITH THE ADMINISTRATION OF ELAMIPRETIDE” (STEALTH BIOTHERAPEUTICS INC., priority 2022, published 2024)

Columns and labels:
[1] = biological target: T1, MRGPRX2 receptor (Homo sapiens, UniProt Q96LB1); assay: Fluo-4 calcium assay in MRGPRX2 expressing Chem-1 cells; assay type: cell-based; settings: Chem-1 cells, Fluo-4
T1 construct: host or cells: Chem-1 cells (G418-selected)
T1 sequence (Q96LB1 1-330): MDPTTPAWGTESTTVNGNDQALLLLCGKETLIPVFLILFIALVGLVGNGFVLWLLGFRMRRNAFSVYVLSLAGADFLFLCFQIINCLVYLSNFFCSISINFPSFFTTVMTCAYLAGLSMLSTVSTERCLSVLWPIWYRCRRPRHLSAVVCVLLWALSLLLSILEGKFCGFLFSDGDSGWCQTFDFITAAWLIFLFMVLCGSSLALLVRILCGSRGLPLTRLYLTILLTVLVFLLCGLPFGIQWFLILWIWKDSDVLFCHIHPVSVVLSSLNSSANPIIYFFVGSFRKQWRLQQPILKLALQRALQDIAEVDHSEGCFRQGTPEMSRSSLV

[2] = system: control (non-MRGPRX2 expressing) Chem-1 cells; settings: parent Chem-1 cells, Fluo-4
Experimental: MRGPRX2 expressing and control (non-MRGPRX2 expressing) Chem-1 cells lines were obtained from Discovery Services, EuroFins. Cells were cultured in Dulbecco's Modified Eagle Medium (DMEM) high glucose medium (4.5 g/L) with 10% fetal bovine serum (FBS), non-essential amino acids, and N-2-hydroxyethylpiperazine-N′-2-ethanesulfonic acid (HEPES) buffer (pH 7.0-7.6). Geneticin (G418) was used for selection of MRGPRX2-expressing Chem-1 cells. Cells were maintained at 37° C. at 5% CO2. Cells were seeded to a glass bottom 96-well plates at a density of 50,000 per well (Cellvis). Cells were loaded with Fluo-4 AM for 30 minutes at 37° C. at a concentration of 2.5 μM. Cells were washed once with Dulbecco's phosphate buffered saline (DPBS). Cells were rested at room temperature for 30 minutes before use and washed with DPBS. Cells were resuspended in 50 μl phosphate buffered saline (PBS) with calcium and magnesium. […] Plates were read immediately with a Biotek plate reader. Readings were taken every 6 seconds for 2 minutes.

C[C@H](CCC(=O)O)C[C@H](C)C[C@H](C)C(=O)/C=C(\O)[C@H](C)C[C@H](C)C/C=C/[C@@H](C)[C@@H](O)[C@@H](C)[C@@H](O)C[C@@H]1CC[C@@](C)([C@H]2CC[C@@](C)([C@@H](C)O)O2)O1 [Ionomycin]
activation of the MRGPRX2 expressing cells (calcium mobilization) [1]: generates a calcium response
effect on cells lacking the MRGPRX2 receptor (calcium mobilization) [2]: generates a calcium response
